Holding throughout (format): cell-based
Experiment [1] deals with A2780 cells. Description: Cell Viability Assay (ATPlite 1step), A2780. Conditions: Homo sapiens, 72 hours; for percent inhibition of cell viability at 4 µM: A2780, 4 uM compound, read-out: Cell Viability % inhibition A2780 (4 uM Cpd); for percent inhibition of cell viability at 20 µM: A2780, 20 uM compound, read-out: Cell Viability % inhibition A2780 (20 uM Cpd). The protocol:
(§1) Cell Viability Assay Protocol
(§2) Cells were trypsinized, counted, and re-seeded into a 384-well tissue culture plate at 1000 cells per well in […] media. Cells were incubated at 37° C. in an atmosphere of 5% CO2 for 24 hours. Experimental compounds, initially dissolved in DMSO and diluted further in media were added to the wells and incubated for 72 hours. Cell viability was measured using the ATPlite 1step Luminescence Detection Assay system (Perkin Elmer) as described in the Assay kit instructions.
(§3) Cell Culture Lines and Media: (1) A2780 cells were cultured in RPMI media with 10% FBS and 1% antibiotics. Cells were typically split every 3-5 days at a 1:10 dilution; (2) PC3 cells were cultured in RPMI media with 10% FBS and 1% antibiotics. Cells were typically split every 3-5 days at a 1:4 dilution; (3) MCF-7 cells were grown in K-12F media with 10% FBS and 1% antibiotics. Cells were typically split every 3-5 days at a 1:10 dilution.

Experiment [2] relates to MCF-7 cells. Description: Cell Viability Assay (ATPlite 1step), MCF-7. Conditions: Homo sapiens, MCF7, 72 hours; for percent inhibition of cell viability at 4 µM: MCF-7, 4 uM compound, read-out: Cell Viability % inhibition MCF-7 (4 uM Cpd); for percent inhibition of cell viability at 20 µM: MCF-7, 20 uM compound, read-out: Cell Viability % inhibition MCF-7 (20 uM Cpd). The protocol:
as §1, §2, §3

Experiment [3] has as its system PC3 cells. Kind of experiment: Cell Viability Assay (ATPlite 1step), PC3. Conditions: Homo sapiens, PC-3, 72 hours; for percent inhibition of cell viability at 4 µM: PC3, 4 uM compound, read-out: Cell Viability % inhibition PC3 (4 uM Cpd); for percent inhibition of cell viability at 20 µM: PC3, 20 uM compound, read-out: Cell Viability % inhibition PC3 (20 uM Cpd). The protocol: as §1, §2, §3
A general note: Cellular ATP, detected with luciferase, serves as a proxy for viable cell number.

As to `O=C(Nc1ccc(-c2ccoc2)cn1)c1cncnc1` [Compound 19, N-[5-(furan-3-yl)pyridin-2-yl]pyrimidine-5-carboxamide], the percent inhibition of cell viability at 4 µM stood at 83.2% in experiment [1], 56.4% in experiment [2] and 62.2% in experiment [3]. Moreover, the percent inhibition of cell viability at 20 µM came to 91.8% in experiment [1], 69.6% in experiment [2] and 75.2% in experiment [3].
Regarding `O=C(Nc1ccc(-c2ccncc2)cn1)c1cncnc1` [Compound 13, N-(3,4′-bipyridin-6-yl)pyrimidine-5-carboxamide], the percent inhibition of cell viability at 4 µM in experiment [1] worked out at 9.3%; in experiment [2], 4.5%; in experiment [3] it was 19.2%. Also, the percent inhibition of cell viability at 20 µM in experiment [1] came out at 47.2%; in experiment [2], 0.2%; in experiment [3] it was 17.5%.
As to `Cc1ncc(C(=O)Nc2ccc(-c3cc(N4CCN(C)CC4)cc(S(=O)(=O)C4CC4)c3)cn2)cn1` [Compound 49, N-{5-[3-cyclopropylsulfonyl-5-(4-methylpiperazin-1-yl)phenyl]pyridin-2-yl}-2-methylpyrimidine-5-carboxamide], the values for the percent inhibition of cell viability at 4 µM in experiment [1], in experiment [2] and in experiment [3] were 16.9%, 28.1% and 19.4%, respectively. In addition, the percent inhibition of cell viability at 20 µM in experiment [1] was 59.5%; in experiment [2], 48.3%; in experiment [3], 39.7%.
Turning to `Cc1ncc(C(=O)Nc2ccc(-c3cc(C4CC4)cc(N4CCN(C)CC4)c3)cn2)cn1` [Compound 53], the percent inhibition of cell viability at 4 µM in experiment [1] was found to be 15.1%; in experiment [2] it was 11.3%; in experiment [3] it was 12.3%. Further, the percent inhibition of cell viability at 20 µM in experiment [1] stood at 74.8%; in experiment [2], 39.6%; in experiment [3] it was 67.1%.
Turning to `Cc1ncc(C(=O)Nc2ccc(-c3cc(Cl)cc(N4CCN(C)CC4)c3)c(C)n2)cn1` [Compound 48, N-{5-[3-chloro-5-(4-methylpiperazin-1-yl)phenyl]-6-methylpyridin-2-yl}-2-methylpyrimidine-5-carboxamide], the percent inhibition of cell viability at 4 µM is 79.2% in experiment [1], 36.5% in experiment [2] and 72% in experiment [3]. Besides, the percent inhibition of cell viability at 20 µM stood at 88.8% in experiment [1], 47.8% in experiment [2] and 67% in experiment [3].
For `Cc1ncc(C(=O)Nc2ccc(-c3cc(N4CCN(C)CC4)cc(S(=O)(=O)C4CC4)c3)c(C)n2)cn1` [Compound 50, N-{5-[3-cyclopropylsulfonyl-5-(4-methylpiperazin-1-yl)phenyl]-6-methylpyridin-2-yl}-2-methylpyrimidine-5-carboxamide], the figures for the percent inhibition of cell viability at 4 µM in experiment [1], in experiment [2] and in experiment [3] were 7.3%, 10% and 39.2%, respectively. The percent inhibition of cell viability at 20 µM was 62.6% in experiment [1], 40.7% in experiment [2] and 54.7% in experiment [3].
As for `O=C(Nc1ccc(-c2cccs2)cn1)c1cccnc1` [Compound 11, N-[5-(thiophen-2-yl)pyridin-2-yl]pyridine-3-carboxamide], the percent inhibition of cell viability at 4 µM in experiment [1] was found to be 85%; in experiment [2] it was 58.6%; in experiment [3], 70%. For the same compound, the percent inhibition of cell viability at 20 µM in experiment [1] came out at 97.8%; in experiment [2], 88.9%; in experiment [3], 83.8%.
As to `O=C(Nc1ccc(-c2cccnc2)cn1)c1cncnc1` [Compound 14, N-(3,3′-bipyridin-6-yl)pyrimidine-5-carboxamide], the percent inhibition of cell viability at 4 µM turned out to be 51.2% in experiment [1], 19.1% in experiment [2] and 23.9% in experiment [3]. In addition, the results for the percent inhibition of cell viability at 20 µM in experiment [1], in experiment [2] and in experiment [3] were 71.4%, 30.3% and 43.3%, respectively.
Take `COc1ccc(Cl)cc1-c1ccc(NC(=O)c2cncnc2)nc1` [Compound 21, N-[5-(5-chloro-2-methoxyphenyl)pyridin-2-yl]pyrimidine-5-carboxamide]: the percent inhibition of cell viability at 4 µM in experiment [1] worked out at 70.4%; in experiment [3], 22.8%. Moreover, the percent inhibition of cell viability at 20 µM worked out at 62.4% in experiment [1] and 15.3% in experiment [3].
Consider `O=C(Nc1ccc(-c2cccc(-c3ccccc3)c2)cn1)c1cncnc1` [Compound 40, N-[5-(biphenyl-3-yl)pyridin-2-yl]pyrimidine-5-carboxamide], for which, in experiment [1], the percent inhibition of cell viability at 4 µM is 61% and the percent inhibition of cell viability at 20 µM was 72%. In addition, in experiment [3], the percent inhibition of cell viability at 4 µM amounted to 48.3% and the percent inhibition of cell viability at 20 µM amounted to 52.5%.
Consider `COc1ccc(-c2ccc(NC(=O)c3cncnc3)nc2)cc1Cl` [Compound 22, N-[5-(3-chloro-4-methoxyphenyl)pyridin-2-yl]pyrimidine-5-carboxamide], for which, in experiment [1], the percent inhibition of cell viability at 4 µM was 69% and the percent inhibition of cell viability at 20 µM was determined as 67.9%. Besides, in experiment [3], the percent inhibition of cell viability at 4 µM turned out to be 20.7% and the percent inhibition of cell viability at 20 µM was found to be 11.5%.
Regarding `Cc1ncc(C(=O)Nc2ccc(-c3cccc(N4CCN(C)CC4)c3)cn2)cn1` [Compound 35, N-{5-[3-(4-methylpiperazin-1-yl)phenyl]pyridin-2-yl}-2-methylpyrimidine-5-carboxamide], the percent inhibition of cell viability at 4 µM in experiment [1] is 54.6%; in experiment [3] it was 39.6%. The results for the percent inhibition of cell viability at 20 µM in experiment [1] and in experiment [3] were 75.9% and 58.8%, respectively.
Taken in the same sequence, the figures for `O=C(Nc1ccc(-c2cccc(C3CC3)c2)cn1)c1cccnc1` [Compound 24, N-[5-(3-cyclopropylphenyl)pyridin-2-yl]pyridine-3-carboxamide] were 73.4%, 53.1%, 72.2% and 67.5%.
With `Cc1ncc(C(=O)Nc2ccc(-c3cccc(NC4CCNC4)c3)cn2)cn1` (centres unmarked) [Compound 55, 2-methyl-N-{5-[3-(pyrrolidin-3-ylamino)phenyl]pyridin-2-yl}pyrimidine-5-carboxamide], the percent inhibition of cell viability at 4 µM in experiment [1] was 80.3%; in experiment [3], 81.1%. In addition, the percent inhibition of cell viability at 20 µM in experiment [1] is 87.4%; in experiment [3] it was 82.2%.
Turning to `CN1CCN(c2cccc(-c3ccc(NC(=O)c4cncnc4)nc3)c2)CC1` [Compound 34, N-{5-[3-(4-methylpiperazin-1-yl)phenyl]pyridin-2-yl}pyrimidine-5-carboxamide], the percent inhibition of cell viability at 4 µM in experiment [1] is 51.6%; in experiment [3], 19.8%. In addition, the percent inhibition of cell viability at 20 µM was found to be 49.4% in experiment [1] and 30.3% in experiment [3].
Taken in the same sequence, the figures for `Cc1ncc(C(=O)Nc2ccc(-c3cccc(C4COC4)c3)cn2)cn1` [Compound 42, 2-methyl-N-{5-[3-(oxetan-3-yl)phenyl]pyridin-2-yl}pyrimidine-5-carboxamide] were 85%, 80.3%, 85.2% and 84.5%.
For the compound `O=C(Nc1ccc(-c2cccc(OC3CC3)c2)cn1)c1cccnc1` [Compound 28, N-{5-[3-(cyclopropyloxy)phenyl]pyridin-2-yl}pyridine-3-carboxamide], the percent inhibition of cell viability at 4 µM is 77% in experiment [1] and 58.9% in experiment [3]. In addition, the percent inhibition of cell viability at 20 µM in experiment [1] worked out at 74.2%; in experiment [3] it was 65.6%.
For `O=C(Nc1ccc(-c2cccc(OC3CC3)c2)cn1)c1cncnc1` [Compound 26, N-{5-[3-(cyclopropyloxy)phenyl]pyridin-2-yl}pyrimidine-5-carboxamide], in experiment [1], the percent inhibition of cell viability at 4 µM stood at 76% and the percent inhibition of cell viability at 20 µM worked out at 79.9%. Further, in experiment [3], the percent inhibition of cell viability at 4 µM amounted to 59.3% and the percent inhibition of cell viability at 20 µM was 67.5%.
As to `O=C(Nc1ccc(C2CC2)cn1)c1cncnc1` [Compound 6, N-(5-cyclopropylpyridin-2-yl)pyrimidine-5-carboxamide], in experiment [1], the percent inhibition of cell viability at 4 µM was 75.5% and the percent inhibition of cell viability at 20 µM is 76.4%. In experiment [3], the percent inhibition of cell viability at 4 µM was 27% and the percent inhibition of cell viability at 20 µM worked out at 29.9%.

The values are drawn from US12383533B2 (Frost Biologic, Inc., priority 2014, dated 2025).
